Source: patent US9499538B2, “Estrogen receptor modulators and uses thereof” (Seragon Pharmaceuticals, Inc., priority 2012, dated 2016)
pIC50: −log10 of the molar value.

How the values were obtained:
ER-α in MCF-7 cells = target: T1, ER-α in MCF-7 cells (Homo sapiens, UniProt P03372); experiment: Breast Cancer Cell ER-α In Cell Western Assay (SP1); type: cell-based; settings: 4 or 24 hr post compound addition; for Emax: MCF7, SP1 antibody, read-out: ER-α In Cell Western Assay (SP1) Max Response; for DC50: SP1 antibody, read-out: ER-α In Cell Western Assay (SP1) IC50
T1 construct: endogenous in cells; host or cells: MCF-7
T1 sequence (P03372 1-595): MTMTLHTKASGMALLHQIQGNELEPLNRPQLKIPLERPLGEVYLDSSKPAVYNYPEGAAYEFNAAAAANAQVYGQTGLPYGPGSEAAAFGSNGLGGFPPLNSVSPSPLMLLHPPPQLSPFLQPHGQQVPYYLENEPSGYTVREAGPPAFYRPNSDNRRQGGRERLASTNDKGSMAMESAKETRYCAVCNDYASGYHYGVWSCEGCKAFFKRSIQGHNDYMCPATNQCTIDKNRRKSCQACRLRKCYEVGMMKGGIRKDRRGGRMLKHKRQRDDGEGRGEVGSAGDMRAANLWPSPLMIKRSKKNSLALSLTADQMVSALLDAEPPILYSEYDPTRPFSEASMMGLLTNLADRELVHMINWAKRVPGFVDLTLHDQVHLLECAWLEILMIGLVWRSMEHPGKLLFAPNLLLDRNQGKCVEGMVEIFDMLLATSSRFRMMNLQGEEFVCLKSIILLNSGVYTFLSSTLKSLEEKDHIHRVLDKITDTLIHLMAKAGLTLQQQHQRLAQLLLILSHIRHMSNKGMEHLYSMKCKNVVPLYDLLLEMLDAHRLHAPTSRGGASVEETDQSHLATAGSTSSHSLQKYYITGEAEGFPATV
Outline: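 MCF-7 cells in charcoal-stripped FBS medium, treated with 11-point semilog dilutions (0.3–0.000003 μM final) for 4 or 24 h. Fixed cells immunostained with SP1 antibody (800 nm) and DRAQ5 DNA (700 nm); ER/DNA ratio expressed as % of untreated cells.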

MCF-7 cells = experiment: Breast Cancer Cell Viability Assays (MCF-7, CellTiter-Glo); type: cell-based; settings: 5 days' compound exposure; for pIC50: Homo sapiens, MCF7, 120 h
Outline: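 MCF-7 cells (320/well, RPMI with 10% FBS) exposed for 5 days to an eleven-point semilog series, 0.3–0.000003 μM final. Viability read by CellTiter-Glo luminescence, expressed as background-corrected percent of untreated cells.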

## O=C(O)/C=C/c1ccc(/C(=C(\c2ccc(OC(F)(F)F)cc2Cl)C2CCC2)c2ccc3[nH]nc(F)c3c2)cc1 [Example 273, (E)-3-(4-((E)-2-(2-Chloro-4-(trifluoromethoxy)phenyl)-2-cyclobutyl-1-(3-fluoro-1H-indazol-5-yl)vinyl)phenyl)acrylic acid]
ER-α in MCF-7 cells
  Emax: ≥ 40%
  DC50: ≤ 100 nM
MCF-7 cells
  MCF7 Viability Assay Max Response: ++ (++ = a single % value ≧ 40%)
  pIC50: ≥ 7.00

## N#Cc1ccc(/C(=C(\c2ccc(/C=C/C(=O)O)cc2)c2ccc3[nH]nc(F)c3c2)C2CCC2)c(F)c1 [Example 48, (E)-3-(4-((E)-2-(4-Cyano-2-fluorophenyl)-2-cyclobutyl-1-(3-fluoro-1H-indazol-5-yl)vinyl)phenyl)acrylic acid]
ER-α in MCF-7 cells
  Emax: ≥ 40%
  DC50: ≤ 100 nM
MCF-7 cells
  MCF7 Viability Assay Max Response: ++ (++ = a single % value ≧ 40%)
  pIC50: ≥ 7.00

## O=C(O)/C=C/c1ccc(/C(=C(\c2cccc(S(=O)(=O)C(F)(F)F)c2)C2CCC2)c2ccc3[nH]nc(F)c3c2)cc1 [Example 45, (E)-3-(4-((E)-2-Cyclobutyl-1-(3-fluoro-1H-indazol-5-yl)-2-(3-((trifluoromethyl)sulfonyl)phenyl)vinyl)phenyl)acrylic acid]
ER-α in MCF-7 cells
  Emax: ≥ 40%
  DC50: ≤ 100 nM
MCF-7 cells
  MCF7 Viability Assay Max Response: ++ (++ = a single % value ≧ 40%)
  pIC50: ≥ 7.00

## CC/C(=C(/c1ccc(/C=C/C(=O)NCCO)cc1)c1ccc2[nH]ncc2c1)c1ccc(F)cc1Cl [Example 179, (E)-3-(4-((E)-2-(2-Chloro-4-fluorophenyl)-1-(1H-indazol-5-yl)but-1-en-1-yl)phenyl)-N-(2-hydroxyethyl)acrylamide]
ER-α in MCF-7 cells
  Emax: ≥ 40%
  DC50: ≤ 100 nM
MCF-7 cells
  MCF7 Viability Assay Max Response: ++ (++ = a single % value ≧ 40%)
  pIC50: ≥ 7.00

## CC/C(=C(/c1ccc(/C=C/C(=O)O)cc1)c1ccc2[nH]nc(F)c2c1)c1cccc(Oc2cncc(S(C)(=O)=O)n2)c1 [Example 56, (E)-3-(4-((E)-1-(3-Fluoro-1H-indazol-5-yl)-2-(3-((6-(methylsulfonyl)pyrazin-2-yl)oxy)phenyl)but-1-en-1-yl)phenyl)acrylic acid]
ER-α in MCF-7 cells
  Emax: ≥ 40%
  DC50: ≤ 100 nM
MCF-7 cells
  MCF7 Viability Assay Max Response: ++ (++ = a single % value ≧ 40%)
  pIC50: < 7.00

## N#Cc1ccc(/C(=C(\c2ccc(/C=C/C(=O)O)cc2)c2ccc3[nH]ncc3c2F)C2CCC2)c(F)c1 [Example 60, (E)-3-(4-((E)-2-(4-Cyano-2-fluorophenyl)-2-cycobutyl-1-(4-fluoro-1H-indazol-5-yl)vinyl)phenyl)acrylic acid]
ER-α in MCF-7 cells
  Emax: ≥ 40%
  DC50: ≤ 100 nM
MCF-7 cells
  MCF7 Viability Assay Max Response: ++ (++ = a single % value ≧ 40%)
  pIC50: ≥ 7.00

## N#Cc1c(/C(=C(/c2ccccc2F)C2CCC2)c2ccc(/C=C/C(=O)O)cc2)ccc2[nH]ncc12 [Example 10, (E)-3-(4-((E)-1-(4-Cyano-1H-indazol-5-yl)-2-cyclobutyl-2-(2-fluorophenyl)vinyl)phenyl)acrylic acid]
ER-α in MCF-7 cells
  Emax: ≥ 40%
  DC50: ≤ 100 nM
MCF-7 cells
  MCF7 Viability Assay Max Response: ++ (++ = a single % value ≧ 40%)
  pIC50: ≥ 7.00

## N#Cc1cc(F)ccc1/C(=C(\c1ccc(/C=C/C(=O)O)cc1)c1ccc2[nH]nc(F)c2c1)C1CCC1 [Example 49, (E)-3-(4-((E)-2-(2-Cyano-4-fluorophenyl)-2-cyclobutyl-1-(3-fluoro-1H-indazol-5-yl)vinyl)phenyl)acrylic acid]
ER-α in MCF-7 cells
  Emax: ≥ 40%
  DC50: ≤ 100 nM
MCF-7 cells
  MCF7 Viability Assay Max Response: ++ (++ = a single % value ≧ 40%)
  pIC50: ≥ 7.00

## O=C(O)/C=C/c1ccc(/C(=C(\c2ccccc2)C2CCC2)c2ccc3[nH]c(=O)oc3c2)cc1 [Example 27, (E)-3-(4-((E)-2-Cyclobutyl-1-(2-oxo-2,3-dihydrobenzo[d]oxazol-6-yl)-2-phenylvinyl)phenyl)acrylic acid]
ER-α in MCF-7 cells
  Emax: ≥ 40%
  DC50: ≤ 100 nM
MCF-7 cells
  MCF7 Viability Assay Max Response: ++ (++ = a single % value ≧ 40%)
  pIC50: ≥ 7.00

## COc1ccc(/C(=C(\c2ccc(/C=C/C(=O)O)cc2)c2ccc3nccn3c2)C2CCC2)c(Cl)c1 [Example 228, (E)-3-(4-((E)-2-(2-Chloro-4-methoxyphenyl)-2-cyclobutyl-1-(imidazo[1,2-a]pyridin-6-yl)vinyl)phenyl)acrylic acid]
ER-α in MCF-7 cells
  Emax: ≥ 40%
  DC50: ≤ 100 nM
MCF-7 cells
  MCF7 Viability Assay Max Response: ++ (++ = a single % value ≧ 40%)
  pIC50: ≥ 7.00

## CSc1ccc(/C(=C(\c2ccc(/C=C/C(=O)O)cc2)c2ccc3[nH]nc(F)c3c2)C2CCC2)c(Cl)c1 [Example 73, (E)-3-(4-((E)-2-(2-Chloro-4-(methylthio)phenyl)-2-cyclobutyl-1-(3-fluoro-1H-indazol-5-yl)vinyl)phenyl)acrylic acid]
ER-α in MCF-7 cells
  Emax: ≥ 40%
  DC50: ≤ 100 nM
MCF-7 cells
  MCF7 Viability Assay Max Response: ++ (++ = a single % value ≧ 40%)
  pIC50: ≥ 7.00

## COc1cc(C)c(/C(=C(/c2ccc3[nH]nc(F)c3c2)c2ccc(/C=C/C(=O)O)nc2C)C2CCC2)cn1 [Example 140, (E)-3-(5-((Z)-2-Cyclobutyl-1-(3-fluoro-1H-indazol-5-yl)-2-(6-methoxy-4-methylpyridin-3-yl)vinyl)-6-methylpyridin-2-yl)acrylic acid]
ER-α in MCF-7 cells
  Emax: ≥ 40%
  DC50: ≤ 100 nM
MCF-7 cells
  MCF7 Viability Assay Max Response: ++ (++ = a single % value ≧ 40%)
  pIC50: ≥ 7.00

## O=C(O)/C=C/c1ccc(/C(=C(\c2ncccc2Cl)C2CCC2)c2cccc3[nH]nc(F)c23)cc1 [Example 246, (E)-3-(4-((E)-2-(3-Chloropyridin-2-yl)-2-cyclobutyl-1-(3-fluoro-1H-indazol-4-yl)vinyl)phenyl)acrylic acid]
ER-α in MCF-7 cells
  Emax: ≥ 40%
  DC50: ≤ 100 nM
MCF-7 cells
  MCF7 Viability Assay Max Response: ++ (++ = a single % value ≧ 40%)
  pIC50: ≥ 7.00

## O=C(O)/C=C/c1ccc(/C(=C(\c2cccc(-n3cccn3)c2)C2CCC2)c2ccc3[nH]nc(F)c3c2)cc1 [Example 84, (E)-3-(4-((E)-2-(3-(1H-Pyrazol-1-yl)phenyl)-2-cyclobutyl-1-(3-fluoro-1H-indazol-5-yl)vinyl)phenyl)acrylic acid]
ER-α in MCF-7 cells
  Emax: ≥ 40%
  DC50: ≤ 100 nM
MCF-7 cells
  MCF7 Viability Assay Max Response: ++ (++ = a single % value ≧ 40%)
  pIC50: ≥ 7.00

## COc1ccc(/C(=C(\c2ccc(/C=C/C(=O)O)cc2)c2ccc3[nH]nc(F)c3c2)C2CC2)c(C#N)c1 [Example 121, (E)-3-(4-((E)-2-(2-Cyano-4-methoxyphenyl)-2-cyclopropyl-1-(3-fluoro-1H-indazol-5-yl)vinyl)phenyl)acrylic acid]
ER-α in MCF-7 cells
  Emax: ≥ 40%
  DC50: ≤ 100 nM
MCF-7 cells
  MCF7 Viability Assay Max Response: ++ (++ = a single % value ≧ 40%)
  pIC50: ≥ 7.00

## O=c1[nH]c(/C=C/c2ccc(/C(=C(\c3ncc(C(F)(F)F)cc3Cl)C3CCC3)c3ccc4scnc4c3)cc2)no1 [Example 277, 3-((E)-4-((E)-1-(Benzo[d]thiazol-5-yl)-2-(3-chloro-5-(trifluoromethyl)pyridin-2-yl)-2-cyclobutylvinyl)styryl)-1,2,4-oxadiazol-5(4H)-one]
ER-α in MCF-7 cells
  Emax: ≥ 40%
  DC50: ≤ 100 nM
MCF-7 cells
  MCF7 Viability Assay Max Response: ++ (++ = a single % value ≧ 40%)
  pIC50: ≥ 7.00

## COc1ccc(/C(=C(\c2ccc(/C=C/C(=O)O)cc2)c2ccc3[nH]nc(F)c3c2)C2CCC2)c(C)c1 [Example 65, (E)-3-(4-((E)-2-Cyclobutyl-1-(3-fluoro-1H-indazol-5-yl)-2-(4-methoxy-2-methylphenyl)vinyl)phenyl)acrylic acid]
ER-α in MCF-7 cells
  Emax: ≥ 40%
  DC50: ≤ 100 nM
MCF-7 cells
  MCF7 Viability Assay Max Response: ++ (++ = a single % value ≧ 40%)
  pIC50: ≥ 7.00
